# PubChem BioAssay (NCI)
#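 In this assay, cells in 96-well plates receive the compound at five concentrations for 48 hours. Endpoints are linearly interpolated between the surrounding concentrations. GI50: concentration for 50% inhibition of growth. TGI: total growth inhibition.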
# Assays:
# Assay in all cases: DTP human tumour cell line panel, 48 h
# [1] = test system: UO-31 renal
# [2] = test system: OVCAR-4 ovarian
# [3] = test system: RXF 393 renal
# [4] = test system: SK-OV-3 ovarian
# [5] = test system: MALME-3M melanoma
# [6] = test system: SF-295 CNS
# [7] = test system: EKVX NSCLC
# [8] = test system: SK-MEL-28 melanoma
# [9] = test system: SN12C renal
# [10] = test system: PC-3 prostate
SMILES,TGI [1] [µM],TGI [2] [µM],TGI [3] [µM],TGI [4] [µM],TGI [5] [µM],TGI [6] [µM],TGI [7] [µM],TGI [8] [µM],TGI [9] [µM],GI50 [1] [µM],GI50 [2] [µM],GI50 [3] [µM],GI50 [4] [µM],GI50 [10] [µM],TGI [10] [µM],GI50 [5] [µM],GI50 [6] [µM],GI50 [8] [µM],GI50 [9] [µM],GI50 [7] [µM]
CC1=C2CC[C@@]3(C)C(=CCC3O)C2(C)CCC1=O (some centres not stated),> 100,> 100,> 100,> 100,> 100,> 100,> 100,> 100,> 100,,,,,,,,,,,
COc1ccc(OC)c(C2=C(c3cn(C)c4ccccc34)C(=O)NC2=O)c1,> 25,> 25,> 25,> 25,> 25,> 25,,> 25,> 25,> 25,> 25,> 25,> 25,> 25,> 25,> 25,> 22.7,> 25,> 25,
OC1CC(O)O[C@H](c2ccccc2)C1 (some centres not stated),> 100,> 100,> 100,,> 100,> 100,> 100,> 100,> 100,,,,,,,,,,,
Cc1[nH]c(=O)n2c(C)nnc2c1C(=O)O,> 100,> 100,> 100,> 100,> 100,> 100,> 100,> 100,> 100,,,,,,,,,,,
CC[O-].CC[O-].O=C1C=C([O-])C(=O)c2ccccc21.O=C1C=C([O-])C(=O)c2ccccc21.[Ti+4],> 100,> 100,> 100,> 100,> 100,> 100,> 100,> 100,> 100,> 86.1,> 100,> 100,> 100,,,9.89,,> 100,> 100,> 100
C[C@@H](NC1CCCC[C@@H]1O)c1ccccc1 (some centres not stated),> 100,> 100,> 100,> 100,> 100,> 100,> 100,> 100,> 100,,,,,,,,,,,
OC1(C(Sc2ccccc2)Sc2ccccc2)CCCCCC1,16.6,> 100,,53.5,,66.2,63.5,> 100,38.5,,,,,,,,,,,
Cc1ccc2ncnc(N(C)C3CCCCC3)c2c1,> 100,> 100,17.9,> 100,> 100,46.9,,> 100,> 100,24.5,76.5,3.84,33.2,27.1,87.4,56,18.9,40,39.6,
CC(=O)Oc1ccc2c(=O)c(C(C)=O)coc2c1,> 100,> 100,> 100,,,> 100,> 100,> 100,,,,,,,,,,,,
O=S(=O)(NCCNc1nccc(-c2c(-c3ccc(F)cc3)nc3sccn23)n1)c1ccc(O)cc1,16.7,21.6,24.8,73,21.5,34.6,,37.8,76.6,2.39,3.52,4.27,9.17,4.51,37.6,3.92,10.4,4.4,3.9,
O=C1NC(c2ccc3ccccc3c2)Nc2ccccc21 (configuration not stated),> 100,> 100,> 100,> 100,,> 100,> 100,> 100,,,,,,,> 100,,,,,
CCN1CCN(Cc2ccc(NC(=O)Nc3nc(-c4cc(OC)c(OC)c(OC)c4)cs3)cc2C(F)(F)F)CC1,3.78,5.13,2.84,3.85,,3.13,4.25,3,3.19,1.36,1.47,1.41,1.71,1.64,6.99,,1.55,1.65,1.45,1.81
CCOc1cc(Cl)c(C(C)NC(=O)c2cccc(OC)c2)cc1OCC (configuration not stated),> 100,99.4,63,> 100,> 100,> 84.5,,> 100,> 100,13.9,17.9,9.21,15.6,15.1,> 100,9.42,5.99,16.5,28.9,
O=C(O)C1=Cc2cccc3cccc(c23)C1=O,> 100,> 100,> 100,> 100,> 100,> 100,> 100,> 100,> 100,,,,,,,,,,,
COC(=O)c1cc(O)ccc1O,> 100,> 100,> 100,> 100,> 100,> 100,> 100,> 100,> 100,,,,,,,,,,,
Cc1cc(S(=O)(=O)Nc2nc3ccccc3c(=O)n2Cc2ccco2)c(S)cc1Cl,> 100,> 100,> 100,,> 100,> 100,70.6,> 100,88.8,49.5,87.7,61.7,,36.9,> 100,54.8,31.8,34.8,29.8,22.8
CCN1CCN(Cc2ccc(Nc3ncc(F)c(-c4cc(F)c5nc(C)n(C(C)C)c5c4)n3)nc2)CC1,7.26,16.2,8.34,11.7,10.5,9.08,,12.9,12.6,0.139,6.49,0.389,3.22,0.0527,11.1,0.0557,0.0882,6.03,5.55,

SMILES,TGI [1] [µM],TGI [2] [µM],TGI [3] [µM],TGI [4] [µM],TGI [5] [µM],TGI [6] [µM],TGI [7] [µM],TGI [8] [µM],TGI [9] [µM],GI50 [1] [µM],GI50 [2] [µM],GI50 [3] [µM],GI50 [4] [µM],GI50 [10] [µM],TGI [10] [µM],GI50 [5] [µM],GI50 [6] [µM],GI50 [8] [µM],GI50 [9] [µM],GI50 [7] [µM]
COc1cc(-c2oc3c(OC)c(O)c(OC)c(O)c3c(=O)c2OC)cc(OC)c1OC,> 100,> 100,,> 100,> 100,> 100,> 100,> 100,> 100,,,,,,> 100,,,,,
CC(=O)Oc1ccc(C2OC(c3ccc4ccccc4c3OC(C)=O)=NN2C(C)=O)c(OC(C)=O)c1 (configuration not stated),3.14,> 75.9,16.3,> 52.3,5.12,14.8,,> 53.9,> 70.6,0.146,0.291,0.432,0.675,0.448,> 59.6,0.407,0.295,0.559,0.512,
CC(=O)OC(C(=O)[O][Ge]([CH3])([CH3])[CH3])c1ccccc1 (configuration not stated),> 100,> 100,7.09,> 100,> 100,> 100,> 100,> 100,> 100,> 100,> 100,0.264,> 100,,,> 100,> 100,> 100,> 100,> 100
CS(=O)(=O)N1CCC(Nc2ncc(C(=O)c3c(F)cccc3F)c(N)n2)CC1,> 25,> 25,17.9,> 25,> 25,> 25,,> 25,> 25,12,> 13.5,5.32,> 25,4.8,> 25,10.6,11.2,18.6,12.3,
O=C(/C=C(/C=C/c1cccc2[nH]ccc12)OB(F)F)/C=C/c1cccc2[nH]ccc12,,24.7,,5.77,8.56,4.61,5.54,2.73,5.45,,0.554,,2.19,0.815,3.41,1.01,1.76,1.04,0.687,1.46
Nc1c(C(=O)Nc2cccc(Cl)c2)sc2nc3c(cc12)C(O)CCC3 (configuration not stated),26.8,40.2,2.87,22.2,33.3,16.3,,59,> 100,1.1,5.51,0.396,0.534,0.416,25.2,0.485,0.314,3.02,0.773,
CC(=O)[O-].CC(=O)[O-].O=C([CH-]C(=O)c1ccccc1)c1ccccc1.[Nd+3].[OH3+],49.3,> 100,,90.5,85.2,35.2,76.5,81.2,92.3,17,27,,27,,,26.1,10.7,23.3,23.5,24.5
CC(=O)OCc1nnn2c1C(OC(C)=O)CC2 (configuration not stated),> 100,> 100,> 100,> 100,> 100,> 100,> 100,> 100,> 100,,,,,,,,,,,
CC(=O)OC(COc1ccc2c(c1)[n+]([O-])nc(N)[n+]2[O-])CN1CCCCC1 (configuration not stated),> 100,> 100,> 100,,24.2,,,> 100,40.3,,,,,,,,,,,
Nc1nc(N)c2cc(S(=O)(=O)c3ccc4ccccc4c3)ccc2n1,,,48,> 81.8,> 100,> 56.3,> 100,> 100,> 100,,,3.81,,,> 100,,,,,
CCOC(=O)C(C(=O)OCC)=C1C=C(c2ccccc2)c2ccccc21,> 100,> 100,> 100,> 100,> 100,> 100,> 100,> 100,> 100,,,,,,,,,,,
CCOC(=O)CCc1c(C)c2c(OC)cc(OC)cc2oc1=O,> 100,> 100,82.4,,> 100,> 100,> 100,> 100,> 100,,,,,,,,,,,
N#CC1=C(N)N=C(N2CCOCC2)C(C#N)C12Nc1ccccc1S2 (configuration not stated),61.4,,> 100,> 100,,79.1,15.6,,82.9,16.4,,19,24.1,20.1,> 100,,26.3,,27.5,1.7
Cc1ccc(NC(=S)NNC(=S)Nc2ccc(C)cc2)cc1,> 100,> 100,> 100,> 100,> 100,> 100,> 100,> 100,,11.6,> 100,5.56,17.3,10.2,> 100,7.07,3.16,8.39,,17.9
Cc1ccc(C2=NN(c3ccc(S(=O)(=O)NC(=O)NCc4ccccc4)cc3)C(c3ccc(N(C)C)cc3)C2)c(C)c1 (configuration not stated),15.7,> 100,9.8,> 100,9.14,,,6.89,61.5,4.27,3.54,3,8.43,3.33,42,2.9,,2.36,3.35,
CCCCCOC(=O)Nc1nc(=O)n(C2OC(C)C(O)C2O)cc1F (configuration not stated),> 10000,> 10000,,> 10000,,> 10000,,> 10000,> 10000,> 10000,> 10000,,> 10000,> 10000,> 10000,,> 10000,> 10000,> 10000,
CCN(N=O)C1C2(CCCC2)NC(=O)C12CCCC2 (configuration not stated),> 100,> 100,> 100,> 100,> 100,> 100,> 100,> 100,> 100,,,,,,,,,,,
